Activity calls are given as the source filed them.

Sequence of Cytochrome P450 2D6 (P10635 whole entry): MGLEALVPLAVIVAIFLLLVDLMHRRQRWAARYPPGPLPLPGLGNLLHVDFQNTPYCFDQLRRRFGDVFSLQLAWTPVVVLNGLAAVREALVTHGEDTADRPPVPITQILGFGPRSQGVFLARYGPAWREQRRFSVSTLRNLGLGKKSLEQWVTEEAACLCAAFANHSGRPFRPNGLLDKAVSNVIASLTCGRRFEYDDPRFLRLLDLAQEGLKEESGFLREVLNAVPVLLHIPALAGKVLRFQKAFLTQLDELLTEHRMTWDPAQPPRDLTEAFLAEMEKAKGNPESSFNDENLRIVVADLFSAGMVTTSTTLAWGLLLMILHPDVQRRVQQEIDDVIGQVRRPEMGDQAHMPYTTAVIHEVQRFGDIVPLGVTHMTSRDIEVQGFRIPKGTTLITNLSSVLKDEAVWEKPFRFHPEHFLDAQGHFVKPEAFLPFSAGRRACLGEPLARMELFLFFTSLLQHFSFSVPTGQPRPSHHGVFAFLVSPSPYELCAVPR
Sequence of Cytochrome P450 2C19 (P33261 whole entry): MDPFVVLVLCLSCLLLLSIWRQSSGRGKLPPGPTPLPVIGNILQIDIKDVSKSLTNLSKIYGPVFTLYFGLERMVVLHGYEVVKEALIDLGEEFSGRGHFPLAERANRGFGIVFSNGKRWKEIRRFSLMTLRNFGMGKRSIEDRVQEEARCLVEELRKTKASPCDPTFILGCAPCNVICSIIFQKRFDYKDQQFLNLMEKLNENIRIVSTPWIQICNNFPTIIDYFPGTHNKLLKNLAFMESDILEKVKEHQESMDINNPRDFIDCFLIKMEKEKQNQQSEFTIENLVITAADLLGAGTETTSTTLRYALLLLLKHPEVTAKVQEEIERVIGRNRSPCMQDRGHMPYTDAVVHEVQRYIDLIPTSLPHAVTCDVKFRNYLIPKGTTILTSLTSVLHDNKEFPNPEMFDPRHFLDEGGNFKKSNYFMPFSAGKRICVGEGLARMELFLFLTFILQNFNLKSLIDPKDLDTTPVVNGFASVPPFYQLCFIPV

In one assay the target is Luciferin 4-monooxygenase (Photinus pyralis, UniProt P08659). In words: firefly luciferase enzyme inhibitors, dose response, biochemical, luminescence (AID 1891).
Sequence of Luciferin 4-monooxygenase (P08659 whole entry): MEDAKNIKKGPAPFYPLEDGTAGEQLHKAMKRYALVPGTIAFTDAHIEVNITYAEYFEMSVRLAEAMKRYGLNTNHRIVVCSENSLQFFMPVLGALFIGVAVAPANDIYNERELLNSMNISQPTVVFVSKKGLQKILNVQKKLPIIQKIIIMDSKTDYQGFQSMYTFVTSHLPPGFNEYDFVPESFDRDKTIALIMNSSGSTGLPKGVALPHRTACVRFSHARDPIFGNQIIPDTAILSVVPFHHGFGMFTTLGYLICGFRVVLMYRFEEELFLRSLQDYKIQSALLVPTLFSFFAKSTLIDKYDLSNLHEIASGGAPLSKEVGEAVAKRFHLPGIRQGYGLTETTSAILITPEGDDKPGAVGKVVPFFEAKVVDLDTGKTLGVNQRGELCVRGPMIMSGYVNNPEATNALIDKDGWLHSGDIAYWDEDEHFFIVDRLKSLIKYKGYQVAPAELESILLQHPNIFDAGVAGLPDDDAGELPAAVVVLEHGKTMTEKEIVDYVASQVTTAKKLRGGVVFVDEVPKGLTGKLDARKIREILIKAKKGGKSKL
Settings: not given
Consider `O=C(Nc1cccc(O)c1)c1noc2c1CCc1ccccc1-2`, for which the EC50 (commonly the concentration at which the effect is half-maximal) was 1.03 µM (active).
In the case of `O=C(Nc1cccc(F)c1)C1CCN(C(=O)Cc2ccccc2)CC1`, the EC50 is > 112 µM (not active).
Regarding `CC(Cc1ccccc1)Nc1ncnc2c1ncn2C1OC(CO)C(O)C1O` (stereo unspecified), the EC50 is recorded as > 112 µM (not active).
Still for that read-out and setting: as for `COc1ccc(Br)cc1CNC(=O)c1ccc2c(c1)N(C)CCS2`, the figure is > 112 µM (not active); as for `CCOc1ccc(CN2CCN(CCCn3cccn3)CC2CCO)cc1` (stereo unspecified), > 112 µM (not active).
Take `N#Cc1nc(Cc2ccccc2)oc1N1CCCC1`: the EC50 is 18.5 µM (active).
Still for that read-out and setting: as for `Cc1cccc(C(=N)NOC(=O)c2ccc(Cl)cc2Cl)c1`, the figure is 0.761 µM (active).
Same read-out and setting: as for `O=C(c1ccc(S(=O)(=O)Nc2ccccc2)cc1)N1CCCC1`, the figure is > 112 µM (not active); as for `CCOC(=O)C1CCCN(C(=O)CCCn2nc(C)n3c(cc4sccc43)c2=O)C1` (stereo unspecified), > 112 µM (not active).

The next assay has as its target Cytochrome P450 2D6 (Homo sapiens, UniProt P10635).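 Also: CYP2D6 member of a cytochrome P450 panel assay.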
Settings: not given
Turning to `CCNc1ncc2nc(-c3cccs3)c(=O)n(C[C@H]3CCCO3)c2n1`, the concentration at half-maximal activity (AC50) (commonly the midpoint of the concentration-response curve, whichever way the signal moves) is 0.2 µM (inconclusive).
Turning to `COc1ccc(C(C(=O)Nc2ccc(F)cc2)N(C(=O)Cn2nnc3ccccc32)C2CC2)cc1` (stereo unspecified), the AC50 was 28.2 µM (inconclusive).
Same read-out and setting: as for `c1cc2cc(c1)C[n+]1ccc(c3ccccc31)NCc1ccc(cc1)CNc1cc[n+](c3ccccc13)C2`, the figure is 39.8 µM (inconclusive); as for `COC(=O)c1cc(NS(=O)(=O)c2ccc(N3CCCCCC3)c([N+](=O)[O-])c2)cc(C(=O)OC)c1`, 12.6 µM (inconclusive); as for `COc1ccc(C(=O)NCC(=O)OCc2cccc(Br)c2)cc1`, 15.8 µM (inconclusive).
On to `O=C(OCc1nnc(-c2ccccc2)o1)c1ccc2c(c1)OCCO2`, for which the concentration at half-maximal activity (AC50) is 28.2 µM (inconclusive).
Consider `CC(CO)Nc1nc(SCc2ccccc2)nc2sc3c(c12)CCC3` (stereo unspecified), for which the AC50 was 12.6 µM (inconclusive).
As for `N#Cc1cccc(NC(=O)N2CCC3(CC2)CCN(C(=O)c2csnn2)CC3)c1`, the concentration at half-maximal activity (AC50) was 15.8 µM (inconclusive).
As to `COc1ccccc1CNc1ncnc2ccc(-c3c(C)noc3C)cc12`, the AC50 is 39.8 µM (inconclusive).
`CC(C)c1cccc2nc3c(c([Si](C)(C)C)c12)Cn1c-3cccc1=O`: the half-maximal activity concentration (AC50) is 39.8 µM (inconclusive).
In the case of `Cc1nc2ccccc2n1CC(=O)N/N=C\C=C\c1ccccc1`, the AC50 is 35.5 µM (inconclusive).

A further assay has as its target Cytochrome P450 2C19 (Homo sapiens, UniProt P33261). Nature of the assay: Cytochrome panel assay with activity outcomes. Panel member name: p450-cyp2c19 Compounds with AC50 equal or less than 10 uM are considered active. In kind it is functional. To be noted: read-out: AC50.
Take `COc1ccc(C(C(=O)Nc2ccc(F)cc2)N(C(=O)Cn2nnc3ccccc32)C2CC2)cc1` (stereo unspecified): the half-maximal activity concentration (AC50) was 10 µM (inconclusive).
As to `COc1ccccc1CNc1ncnc2ccc(-c3c(C)noc3C)cc12`, the concentration at half-maximal activity (AC50) was 31.6 µM (inconclusive).

Another assay concerns the target T1, Rac GTPase-activating protein 1 (Homo sapiens, UniProt Q9H0H5).
T1 sequence (Q9H0H5 whole entry): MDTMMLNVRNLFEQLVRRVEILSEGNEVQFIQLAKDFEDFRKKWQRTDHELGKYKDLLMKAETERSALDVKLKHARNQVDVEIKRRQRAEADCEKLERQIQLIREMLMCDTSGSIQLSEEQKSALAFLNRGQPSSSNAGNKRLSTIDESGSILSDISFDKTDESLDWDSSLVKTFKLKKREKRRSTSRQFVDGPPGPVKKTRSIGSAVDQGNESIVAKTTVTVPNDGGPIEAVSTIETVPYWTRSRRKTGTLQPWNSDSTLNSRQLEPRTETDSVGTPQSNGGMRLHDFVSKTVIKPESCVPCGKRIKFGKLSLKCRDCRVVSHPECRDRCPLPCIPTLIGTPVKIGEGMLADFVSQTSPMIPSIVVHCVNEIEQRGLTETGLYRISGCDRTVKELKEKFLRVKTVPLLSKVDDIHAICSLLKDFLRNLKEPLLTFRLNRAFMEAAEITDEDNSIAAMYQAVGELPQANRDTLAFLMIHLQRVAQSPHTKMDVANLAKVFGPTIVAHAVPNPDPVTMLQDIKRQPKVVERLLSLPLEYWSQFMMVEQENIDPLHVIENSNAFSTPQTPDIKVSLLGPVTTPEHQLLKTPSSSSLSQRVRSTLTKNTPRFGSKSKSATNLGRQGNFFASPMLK
In words: MgcRacGAP GTPase-activating activity inhibitors, confirmation, biochemical, ADP Hunter fluorescence, primary and confirmatory (AID 624330). The class given is functional.
Settings: not given
As to `COc1ccc(C(=O)/C=C/c2ccc(O)cc2)cc1`, the IC50 (usually the concentration needed to halve the response being measured) was 37 µM (active).
`Cc1sc2ncnc(N(C)CCc3ccccn3)c2c1C`: the IC50 was 148 µM (active).
As to `N#CC1(Nc2ccc3c4c(cccc24)CC3)CCCCC1`, the IC50 was 18.5 µM (active).
Same read-out and setting: the value for `Cc1cc(NC(=O)CN2CCC(C)CC2)no1` was 253 µM (active).
Still for that read-out and setting: as for `CCOc1cc(/C=N/NC(=O)C2CCCC2)ccc1O`, the figure is 52.1 µM (active); as for `CN1CCN(/N=C/c2nc(-c3ccccc3)n3ccccc23)CC1`, 29.1 µM (active); as for `COCC(C)NCc1ccccc1C` (stereo unspecified), 138 µM (active).
Same read-out and setting: as for `O=C(/C(=C/c1cccnc1)n1ccnc1)c1ccc(Cl)cc1Cl`, the figure is 223 µM (active); as for `COc1ccc(Cn2nnnc2C(c2cccnc2)N2CCN(c3ccc(O)cc3)CC2)cc1` (stereo unspecified), 39.6 µM (active).

A further assay deals with Cytochrome P450 3A4 (Homo sapiens, UniProt P08684).
Sequence of Cytochrome P450 3A4 (P08684 whole entry): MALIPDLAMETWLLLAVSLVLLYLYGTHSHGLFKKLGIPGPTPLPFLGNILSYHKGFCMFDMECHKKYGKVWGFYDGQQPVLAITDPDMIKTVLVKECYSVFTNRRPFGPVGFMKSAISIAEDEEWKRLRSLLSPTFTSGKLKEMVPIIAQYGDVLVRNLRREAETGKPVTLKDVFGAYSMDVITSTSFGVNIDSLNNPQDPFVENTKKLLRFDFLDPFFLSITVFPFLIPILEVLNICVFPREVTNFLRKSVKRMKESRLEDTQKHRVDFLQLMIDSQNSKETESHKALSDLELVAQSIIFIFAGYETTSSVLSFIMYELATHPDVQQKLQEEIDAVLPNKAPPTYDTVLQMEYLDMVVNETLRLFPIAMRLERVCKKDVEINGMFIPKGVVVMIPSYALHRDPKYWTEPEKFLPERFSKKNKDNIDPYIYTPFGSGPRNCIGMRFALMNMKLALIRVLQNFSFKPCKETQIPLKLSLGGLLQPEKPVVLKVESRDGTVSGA
Settings: not given
For `CCNc1ncc2nc(-c3cccs3)c(=O)n(C[C@H]3CCCO3)c2n1`, the AC50 is 7.94 µM (inconclusive).
Same read-out and setting: as for `N#Cc1cccc(NC(=O)N2CCC3(CC2)CCN(C(=O)c2csnn2)CC3)c1`, the figure is 20 µM (inconclusive).

The next assay deals with T2, RNA-binding protein pos-1 (Caenorhabditis elegans, UniProt G5EF15).
T2 sequence (G5EF15 whole entry): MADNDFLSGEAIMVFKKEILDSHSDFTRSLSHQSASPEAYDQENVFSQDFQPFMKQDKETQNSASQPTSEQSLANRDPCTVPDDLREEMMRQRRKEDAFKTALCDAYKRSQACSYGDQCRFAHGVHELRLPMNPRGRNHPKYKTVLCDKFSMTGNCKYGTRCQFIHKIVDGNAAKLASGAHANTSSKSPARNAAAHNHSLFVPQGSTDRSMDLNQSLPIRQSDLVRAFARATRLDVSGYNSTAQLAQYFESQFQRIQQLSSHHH
Nature of the assay: inhibitors of POS-1/mex-3 RNA binding, dose response, biochemical, fluorescence polarization (AID 1964).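 Also: purified POS-1 fused to maltose binding protein made in E. coli; potency of compounds blocking POS-1 binding to fluorescent RNA.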
Settings: not given
For orientation: In fluorescence polarisation assays a small probe gives low polarisation when free and higher when bound to something large.
For `O=C1NC(=O)N(c2cccc(F)c2)C(=O)/C1=C/c1c[nH]c2ccccc12`, the EC50 was > 300 µM (not active).

Tested on in the next assay: not listed separately
Nature of the assay: Luminescence Cell-Based Dose Confirmation HTS to Identify Inhibitors of Platelet Dense Granule Release. [Related pubchem assays: 1663 (Primary HTS), 1678 (Summary of Project)]. The class given is functional.
Settings: not given
As to `O=C(Nc1cccc(O)c1)c1noc2c1CCc1ccccc1-2`, the EC50 was 8.29 µM (active).
Still for that read-out and setting: the value for `O=C(Nc1cccc(F)c1)C1CCN(C(=O)Cc2ccccc2)CC1` was > 112 µM (not active); that for `CC(Cc1ccccc1)Nc1ncnc2c1ncn2C1OC(CO)C(O)C1O` (stereo unspecified) was < 0.701 µM (active); that for `COc1ccc(Br)cc1CNC(=O)c1ccc2c(c1)N(C)CCS2` was > 112 µM (not active).
As to `CCOc1ccc(CN2CCN(CCCn3cccn3)CC2CCO)cc1` (stereo unspecified), the EC50 is 83.2 µM (active).
The same measure, in the same setting: the value for `N#Cc1nc(Cc2ccccc2)oc1N1CCCC1` was > 112 µM (not active).
On the same count and under the same terms, the value for `Cc1cccc(C(=N)NOC(=O)c2ccc(Cl)cc2Cl)c1` was 3.2 µM (active); that for `O=C(c1ccc(S(=O)(=O)Nc2ccccc2)cc1)N1CCCC1` was > 112 µM (not active); that for `CCOC(=O)C1CCCN(C(=O)CCCn2nc(C)n3c(cc4sccc43)c2=O)C1` (stereo unspecified) was > 112 µM (not active).

A further assay deals with T3, Cytochrome P450 1A2 (Homo sapiens, UniProt P05177).
T3 sequence (P05177 whole entry): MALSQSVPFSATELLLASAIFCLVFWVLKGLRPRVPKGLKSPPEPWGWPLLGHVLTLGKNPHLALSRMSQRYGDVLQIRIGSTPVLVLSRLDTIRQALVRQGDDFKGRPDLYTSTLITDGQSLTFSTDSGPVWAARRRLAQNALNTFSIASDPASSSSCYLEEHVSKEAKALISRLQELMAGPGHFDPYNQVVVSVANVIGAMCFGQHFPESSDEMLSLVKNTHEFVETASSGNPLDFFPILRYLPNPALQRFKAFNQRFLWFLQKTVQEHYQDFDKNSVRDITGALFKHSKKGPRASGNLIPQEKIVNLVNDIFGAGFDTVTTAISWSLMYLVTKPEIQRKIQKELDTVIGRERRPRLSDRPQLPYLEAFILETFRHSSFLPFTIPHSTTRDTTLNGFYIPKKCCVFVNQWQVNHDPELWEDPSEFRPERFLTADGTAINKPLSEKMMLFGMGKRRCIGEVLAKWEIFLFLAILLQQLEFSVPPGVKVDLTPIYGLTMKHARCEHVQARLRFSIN
Settings: not given
Take `COC(=O)c1cc(NS(=O)(=O)c2ccc(N3CCCCCC3)c([N+](=O)[O-])c2)cc(C(=O)OC)c1`: the AC50 is 14.1 µM (inconclusive).

For a further assay, the target named is Cytochrome P450 2C9 (Homo sapiens, UniProt P11712).
Sequence of Cytochrome P450 2C9 (P11712 whole entry): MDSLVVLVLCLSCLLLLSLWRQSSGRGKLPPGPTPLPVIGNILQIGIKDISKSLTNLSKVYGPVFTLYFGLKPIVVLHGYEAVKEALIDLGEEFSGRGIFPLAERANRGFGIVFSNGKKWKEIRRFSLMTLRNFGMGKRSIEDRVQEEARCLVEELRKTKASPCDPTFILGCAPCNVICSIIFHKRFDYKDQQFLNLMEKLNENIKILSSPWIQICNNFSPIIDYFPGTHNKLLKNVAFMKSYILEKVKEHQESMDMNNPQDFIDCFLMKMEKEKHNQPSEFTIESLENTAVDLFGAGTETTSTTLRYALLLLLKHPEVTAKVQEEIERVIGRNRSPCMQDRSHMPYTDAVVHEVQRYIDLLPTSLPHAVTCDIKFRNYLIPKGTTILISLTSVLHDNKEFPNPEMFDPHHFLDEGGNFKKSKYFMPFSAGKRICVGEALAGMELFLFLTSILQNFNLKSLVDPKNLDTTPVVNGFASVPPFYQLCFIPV
Settings: not given
Turning to `COc1ccccc1CNc1ncnc2ccc(-c3c(C)noc3C)cc12`, the AC50 is 0.794 µM (inconclusive).
Still for that read-out and setting: as for `CC(C)c1cccc2nc3c(c([Si](C)(C)C)c12)Cn1c-3cccc1=O`, the figure is 39.8 µM (inconclusive).

Tested on in a further assay: not listed separately
In words: Luminescence Cell-Based Dose Retest to Confirm Inhibitors of Cancer Stem Cells. [Related pubchem assays (depositor defined):AID2717, AID2721]. In kind it is functional. Particulars: Homo sapiens.
For the molecule `CN1CCc2c(sc(NC(=O)c3ccc(S(=O)(=O)N4CCc5ccccc54)cc3)c2C(N)=O)C1`, the AC50 was 2.91 µM (active).
Consider `O=c1cc(N2CCCCC2)c(-c2ccccc2)nn1Cc1ccccc1`, for which the half-maximal activity concentration (AC50) was 2.06 µM (active).
On to `CC(C)=CCc1c(O)cc2c(=O)c3ccc(O)cc3oc2c1O`, for which the half-maximal activity concentration (AC50) was 5.16 µM (active).
`CN(C)C(CNS(=O)(=O)c1ccc2ccccc2c1)c1ccccc1` (stereo unspecified): the AC50 was > 195 µM (inactive).
Same read-out and setting: as for `CC[C@@H]1CC=C[C@H]2[C@H]1C(=O)N(Cc1ccccc1)[C@H]2c1ccoc1`, the figure is 5.39 µM (active).

(Values after ChEMBL document CHEMBL1201862, “PubChem BioAssay data set” (2004).)
